One assay deals with S. aureus RN4220. The assay is described as follows: MIC, agar plate dilution method, S. aureus RN4220. The assay is classed as cell-based, Staphylococcus aureus. Conditions: for MIC: Staphylococcus aureus, RN4220, S. aureus RN4220, Sensitive bacterium, read-out: minimal inhibitory concentration (MIC); for minimal inhibitory concentration (MIC): S. aureus RN4220, Sensitive bacterium. Here is the method: (§1) As for the representative compounds of a new aminoglycoside antibiotic of the present invention described in Examples, the minimal inhibitory concentration (MIC, μg/mL) was measured for various assay strains of bacteria using an agar plate dilution method in accordance with the method described in the Japan Society of Chemotherapy.

The subject of another assay is S. aureus RN4220/pMS520. Put plainly: MIC, agar plate dilution method, S. aureus RN4220/pMS520. The assay is classed as cell-based, Staphylococcus aureus. Conditions: for MIC: Staphylococcus aureus, MRSA, read-out: minimal inhibitory concentration (MIC), S. aureus RN4220/pMS520, MRSA; for minimal inhibitory concentration (MIC): S. aureus RN4220/pMS520, MRSA. On the procedure: as §1

A further assay has as its system S. aureus MF490. The assay is described as follows: MIC, agar plate dilution method, S. aureus MF490. The following applies: for MIC: Staphylococcus aureus, MRSA, read-out: minimal inhibitory concentration (MIC); for minimal inhibitory concentration (MIC): S. aureus MF490, MRSA. It is filed as cell-based, Staphylococcus aureus. Here is the method: as §1
The test system of another assay is E. faecium ATCC19434. The assay is described as follows: MIC, agar plate dilution method, E. faecium ATCC19434. It is filed as cell-based, Enterococcus faecium. The following applies: for MIC: Enterococcus faecium, ATCC19434, E. faecium ATCC19434, read-out: minimal inhibitory concentration (MIC); for minimal inhibitory concentration (MIC): E. faecium ATCC19434. On the procedure:
as §1

The test system of the next assay is E. coli JM109/pMW218. Put plainly: MIC, agar plate dilution method, E. coli JM109/pMW218. It is filed as cell-based, Escherichia coli. The following applies: for MIC: Escherichia coli, JM109/PMW218, E. coli JM109/pMW218, Sensitive bacterium, read-out: minimal inhibitory concentration (MIC); for minimal inhibitory concentration (MIC): E. coli JM109/pMW218, Sensitive bacterium. On the procedure: as §1

The subject of assay [1] is K. pneumoniae ATCC BAA-1705. Put plainly: MIC, agar plate dilution method, K. pneumoniae ATCC BAA-1705. The assay is classed as cell-based, Klebsiella pneumoniae. The following applies: for MIC: Klebsiella pneumoniae, ATCCBAA1705, K. pneumoniae ATCC BAA-1705, KPC-producing strain, read-out: minimal inhibitory concentration (MIC); for minimal inhibitory concentration (MIC): K. pneumoniae ATCC BAA-1705, KPC-producing strain. On the procedure: as §1

The subject of assay [2] is K. pneumoniae ATCC BAA-2146. Put plainly: MIC, agar plate dilution method, K. pneumoniae ATCC BAA-2146. Conditions: for MIC: Klebsiella pneumoniae, ATCCBAA2146, K. pneumoniae ATCC BAA-2146, NDM-producing strain, read-out: minimal inhibitory concentration (MIC); for minimal inhibitory concentration (MIC): K. pneumoniae ATCC BAA-2146, NDM-producing strain. It is filed as cell-based, Klebsiella pneumoniae. On the procedure: as §1

Assay [3] has as its system A. baumannii ATCC BAA-1710. The assay is described as follows: MIC, agar plate dilution method, A. baumannii ATCC BAA-1710. It is filed as cell-based, Acinetobacter baumannii. Conditions: for MIC: Acinetobacter baumannii, ATCCBAA1710, A. baumannii ATCC BAA-1710, MDRA, read-out: minimal inhibitory concentration (MIC); for minimal inhibitory concentration (MIC): A. baumannii ATCC BAA-1710, MDRA. Here is the method:
as §1

The subject of the next assay is S. marcescens TH-0447. The assay is described as follows: MIC, agar plate dilution method, S. marcescens TH-0447. Conditions: for MIC: Serratia marcescens, TH0447, S. marcescens TH-0447, AMK-resistant, read-out: minimal inhibitory concentration (MIC); for minimal inhibitory concentration (MIC): S. marcescens TH-0447, AMK-resistant. It is filed as cell-based, Serratia marcescens. Here is the method: as §1

A further assay relates to S. marcescens GN6944. The assay is described as follows: MIC, agar plate dilution method, S. marcescens GN6944. It is filed as cell-based, Serratia marcescens. Conditions: S. marcescens GN6944, GM-resistant; for MIC: Serratia marcescens, read-out: minimal inhibitory concentration (MIC). On the procedure: as §1
The subject of another assay is P. aeruginosa PAO1. The assay is described as follows: MIC, agar plate dilution method, P. aeruginosa PAO1. The assay is classed as cell-based, Pseudomonas aeruginosa. The following applies: for MIC: Pseudomonas aeruginosa, PAO1, P. aeruginosa PAO1, Sensitive bacterium, read-out: minimal inhibitory concentration (MIC); for minimal inhibitory concentration (MIC): P. aeruginosa PAO1, Sensitive bacterium. On the procedure: as §1

The subject of the next assay is P. aeruginosa PAO1/GN315. Put plainly: MIC, agar plate dilution method, P. aeruginosa PAO1/GN315. It is filed as cell-based, Pseudomonas aeruginosa. The following applies: for MIC: Pseudomonas aeruginosa, read-out: minimal inhibitory concentration (MIC), P. aeruginosa PAO1/GN315, AMK-resistant; for minimal inhibitory concentration (MIC): P. aeruginosa PAO1/GN315, AMK-resistant. On the procedure: as §1

The subject of a further assay is P. aeruginosa MSC17707. The assay is described as follows: MIC, agar plate dilution method, P. aeruginosa MSC17707. The following applies: for MIC: Pseudomonas aeruginosa, MSC17707, P. aeruginosa MSC17707, AMK-resistant, read-out: minimal inhibitory concentration (MIC); for minimal inhibitory concentration (MIC): P. aeruginosa MSC17707, AMK-resistant. It is filed as cell-based, Pseudomonas aeruginosa. Here is the method:
as §1

A further assay deals with P. aeruginosa MSC01035. Put plainly: MIC, agar plate dilution method, P. aeruginosa MSC01035. The assay is classed as cell-based, Pseudomonas aeruginosa. Conditions: P. aeruginosa MSC01035, ABK-resistant; for MIC: Pseudomonas aeruginosa, read-out: minimal inhibitory concentration (MIC). On the procedure:
as §1

Values after ≈ are worked out from the molar mass of the structure shown.

With `CNC1C(O[C@H]2OC(CO)[C@@H](NC3CN(C)C3)[C@H](O)C2O)O[C@H]2CC(N)[C@@H](O[C@@H]3C(N)C[C@@H](N)C(O)[C@H]3O)OC2C1O` (some centres unmarked) [Compound A4-i, 4″-N-(1-methylazetidin-3-yl)apramycin], the MIC came to 4 µg/mL (≈ 6.57 µM) with S. aureus RN4220; 4 µg/mL (≈ 6.57 µM) in the assay on S. aureus RN4220/pMS520; 16 µg/mL (≈ 26.3 µM) in the assay on S. aureus MF490; 32 µg/mL (≈ 52.6 µM) in the assay with E. faecium ATCC19434; 1 µg/mL (≈ 1.64 µM) in the assay with E. coli JM109/pMW218; 2 µg/mL (≈ 3.29 µM) in [1]. In addition, the MIC turned out to be 2 µg/mL (≈ 3.29 µM) in [2]; 16 µg/mL (≈ 26.3 µM) in assay [3]; 16 µg/mL (≈ 26.3 µM) with S. marcescens TH-0447; 8 µg/mL (≈ 13.1 µM) with S. marcescens GN6944; 8 µg/mL (≈ 13.1 µM) in the assay with P. aeruginosa PAO1; 16 µg/mL (≈ 26.3 µM) in the assay on P. aeruginosa PAO1/GN315. In addition, the MIC with P. aeruginosa MSC17707 and with P. aeruginosa MSC01035 was 16 µg/mL (≈ 26.3 µM) throughout.

Regarding `CNC1C(O[C@H]2OC(CO)[C@@H](NC(=N)N)[C@H](O)C2O)O[C@H]2CC(N)[C@@H](O[C@@H]3C(N)C[C@@H](N)C(O)[C@H]3O)OC2C1O` (some centres unmarked) [Compound A4-j, 4″-deamino-4″-guanidinoapramycin], the MIC in the assay with S. aureus RN4220 worked out at 2 µg/mL (≈ 3.44 µM); in the assay with S. aureus RN4220/pMS520, 2 µg/mL (≈ 3.44 µM); with S. aureus MF490 it was 8 µg/mL (≈ 13.8 µM); in the assay on E. faecium ATCC19434, 16 µg/mL (≈ 27.5 µM); with E. coli JM109/pMW218, 1 µg/mL (≈ 1.72 µM); in [1], 2 µg/mL (≈ 3.44 µM). Further, the MIC in assay [2] amounted to 1 µg/mL (≈ 1.72 µM); in [3], 8 µg/mL (≈ 13.8 µM); in the assay on S. marcescens TH-0447, 8 µg/mL (≈ 13.8 µM); in the assay with S. marcescens GN6944, 4 µg/mL (≈ 6.88 µM); in the assay with P. aeruginosa PAO1, 4 µg/mL (≈ 6.88 µM); in the assay on P. aeruginosa PAO1/GN315, 8 µg/mL (≈ 13.8 µM). Also, the MIC in the assay with P. aeruginosa MSC17707 and with P. aeruginosa MSC01035 was 8 µg/mL (≈ 13.8 µM) in each case.

`CNC1C(OC2OC(CO)C(NCCNC(=N)N)C(O)C2O)OC2CC(N)C(OC3C(N)CC(N)C(O)C3O)OC2C1O` (centres unmarked) [Compound A4-k, 4″-N-guanidinoethylapramycin]: the “minimal inhibitory concentration (MIC)” value with S. aureus RN4220 was 2 µg/mL (≈ 3.2 µM); in the assay with S. aureus RN4220/pMS520, 2 µg/mL (≈ 3.2 µM); in the assay on S. aureus MF490, 16 µg/mL (≈ 25.6 µM); in the assay on E. faecium ATCC19434 it was 16 µg/mL (≈ 25.6 µM); with E. coli JM109/pMW218, 0.5 µg/mL (≈ 0.8 µM); in assay [1] it was 1 µg/mL (≈ 1.6 µM). The “minimal inhibitory concentration (MIC)” value in [2] was found to be 1 µg/mL (≈ 1.6 µM); in assay [3], 8 µg/mL (≈ 12.8 µM); in the assay on S. marcescens TH-0447, 8 µg/mL (≈ 12.8 µM); in the assay on S. marcescens GN6944, 4 µg/mL (≈ 6.4 µM); in the assay with P. aeruginosa PAO1 it was 8 µg/mL (≈ 12.8 µM); in the assay with P. aeruginosa PAO1/GN315 it was 8 µg/mL (≈ 12.8 µM). Also, the “minimal inhibitory concentration (MIC)” value with P. aeruginosa MSC17707 and with P. aeruginosa MSC01035 was 16 µg/mL (≈ 25.6 µM) each time.

For the compound `CNC1C(OC2OC(CO)C(N)C(O)C2O)OC2CC(N)C(OC3C(N)CC(N)C(O)C3O)OC2C1O` (centres unmarked) [Compound B5, 5-epiapramycin], the “minimal inhibitory concentration (MIC)” value in the assay on S. aureus RN4220 was 4 µg/mL (≈ 7.41 µM); with S. aureus RN4220/pMS520, 2 µg/mL (≈ 3.71 µM); with S. aureus MF490 it was 8 µg/mL (≈ 14.8 µM); in the assay on E. faecium ATCC19434, 16 µg/mL (≈ 29.7 µM); in the assay on E. coli JM109/pMW218, 1 µg/mL (≈ 1.85 µM); in assay [1], 1 µg/mL (≈ 1.85 µM). Moreover, the “minimal inhibitory concentration (MIC)” value came out at 1 µg/mL (≈ 1.85 µM) in assay [2]; 8 µg/mL (≈ 14.8 µM) in assay [3]; 8 µg/mL (≈ 14.8 µM) in the assay on S. marcescens TH-0447; 8 µg/mL (≈ 14.8 µM) in the assay on S. marcescens GN6944; 4 µg/mL (≈ 7.41 µM) with P. aeruginosa PAO1; 4 µg/mL (≈ 7.41 µM) in the assay with P. aeruginosa PAO1/GN315. Also, the “minimal inhibitory concentration (MIC)” value in the assay on P. aeruginosa MSC17707 and in the assay with P. aeruginosa MSC01035 was 4 µg/mL (≈ 7.41 µM) throughout.

(Values after patent publication US11135234B2, “Effective aminoglycoside antibiotic for multidrug-resistant bacteria” (MICROBIAL CHEMISTRY RESEARCH FOUNDATION, priority 2015, dated 2021).)
